Target: T1, mouse TLR7 (Mus musculus, UniProt P58681)
T1 sequence (P58681 27-1050): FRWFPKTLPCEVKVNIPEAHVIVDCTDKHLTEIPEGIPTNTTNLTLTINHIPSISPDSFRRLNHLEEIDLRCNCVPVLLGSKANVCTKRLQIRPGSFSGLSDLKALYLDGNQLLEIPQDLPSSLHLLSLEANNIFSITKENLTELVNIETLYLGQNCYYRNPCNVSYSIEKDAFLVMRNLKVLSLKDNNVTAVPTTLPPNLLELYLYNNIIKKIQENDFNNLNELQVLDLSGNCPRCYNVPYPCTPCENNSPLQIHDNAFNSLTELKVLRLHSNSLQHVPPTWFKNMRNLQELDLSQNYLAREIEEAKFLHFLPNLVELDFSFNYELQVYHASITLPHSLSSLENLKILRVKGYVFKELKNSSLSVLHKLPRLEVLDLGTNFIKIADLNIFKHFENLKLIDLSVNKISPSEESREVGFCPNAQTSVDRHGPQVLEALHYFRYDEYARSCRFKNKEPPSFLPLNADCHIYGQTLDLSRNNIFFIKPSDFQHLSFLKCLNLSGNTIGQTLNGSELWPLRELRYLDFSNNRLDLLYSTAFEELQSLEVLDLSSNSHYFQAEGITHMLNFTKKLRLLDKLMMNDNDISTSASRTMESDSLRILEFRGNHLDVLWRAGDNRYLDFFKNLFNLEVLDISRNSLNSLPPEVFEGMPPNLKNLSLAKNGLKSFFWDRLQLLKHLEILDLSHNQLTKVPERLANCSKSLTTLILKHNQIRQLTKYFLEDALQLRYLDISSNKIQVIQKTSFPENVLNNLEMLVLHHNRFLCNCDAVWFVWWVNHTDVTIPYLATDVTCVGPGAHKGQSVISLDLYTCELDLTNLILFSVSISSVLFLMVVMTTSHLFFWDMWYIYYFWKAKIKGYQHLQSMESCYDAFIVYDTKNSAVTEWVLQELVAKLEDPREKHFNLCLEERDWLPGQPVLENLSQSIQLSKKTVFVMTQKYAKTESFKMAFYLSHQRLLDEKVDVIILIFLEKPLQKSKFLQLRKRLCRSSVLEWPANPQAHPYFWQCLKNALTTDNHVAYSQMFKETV
Test: Short-term in vivo (STIV) assay: oral dosing, R848 s.c., plasma IL-6
Parameters: female BALB/c mice (Jackson Labs, Bar Harbor, Me.) were dosed by oral gavage; tissue Jackson Labs; host or cells: living female BALB/c mice; plasma IL-6 after s.c. R848
Conditions: for short-term in vivo suppression of the TLR7 pathway (plasma IL-6): 33, 100 or 300 mg/kg oral, 6, 13 or 24 hours, FIG. 1
Method in brief: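 Female BALB/c mice (6–8 weeks) dosed orally with compound in 0.5% aqueous methyl-cellulose at 33, 100 or 300 mg/kg; at various times afterwards given 15 ug R848 s.c. to stimulate TLR7. Plasma IL-6 measured by ELISA to gauge potency and duration of action.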

Row | SMILES | % Suppression vs. Vehicle (3 h, 33 mg/kg) [%] | % Suppression vs. Vehicle (3 h, 100 mg/kg) [%] | % Suppression vs. Vehicle (3 h, 300 mg/kg) [%] | % Suppression vs. Vehicle (6 h, 33 mg/kg) [%] | % Suppression vs. Vehicle (6 h, 100 mg/kg) [%] | % Suppression vs. Vehicle (6 h, 300 mg/kg) [%] | % Suppression vs. Vehicle (19 h, 33 mg/kg) [%] | % Suppression vs. Vehicle (19 h, 100 mg/kg) [%] | % Suppression vs. Vehicle (19 h, 300 mg/kg) [%] | % Suppression vs. Vehicle (13 h, 100 mg/kg) [%] | other results
1 | C[C@@H]1CN(c2ccc(C#N)c3ncccc23)C[C@H](CN2CC[C@H](O)C2)O1 [ER-886820] | 93 | 100 | 100 | 68 | 96 | 100 | 43 | 35 | 39 |  | 
2 | C[C@@H]1CN(c2ccc(C#N)c3ncccc23)C[C@H](CN2CCN(C)CC2)O1 [ER-887723] |  |  |  | 100 | 100 | 100 | 77 | 97 | 100 |  | 
3 | C[C@@H]1CN(c2ccc(C#N)c3ncccc23)C[C@H](C(=O)NC2CCN(C)CC2)O1 [ER-899464, (2R,6R)-4-(8-cyanoquinolin-5-yl)-6-methyl-N-(1-methylpiperidin-4-yl)morpholine-2-carboxamide] |  |  |  |  | 99 |  |  |  |  | 96 | short-term in vivo suppression of the TLR7 pathway (plasma IL-6): suppression of the TLR7 pathway
4 | CC(=O)NC1CCN(CC2CN(c3ccc(C#N)c4ncccc34)CC(C)O2)CC1 (stereo not shown) [ER-888288] | 100 | 98 |  | 78 | 99 | 97 | 50 | 53 |  |  | % Suppression vs. Vehicle (24 h, 33 mg/kg): 14%; % Suppression vs. Vehicle (24 h, 100 mg/kg): 0%; % Suppression vs. Vehicle (24 h, 300 mg/kg): 55%
5 | CC1CN(c2ccc(C#N)c3ncccc23)CC(CN2CCC(N(C)C)CC2)O1 (stereo not shown) [ER-887725] | 99 | 99 | 99 | 99 | 99 | 99 | 90 | 91 | 99 |  | 
6 | C[C@@H]1CN(c2ccc(C#N)c3ncccc23)C[C@H](C)O1 [ER-878952] |  |  |  |  |  |  |  |  |  |  | % Suppression vs. Vehicle (12 h, 200 mg/kg): 93%; % Suppression vs. Vehicle (12 h, 600 mg/kg): 95%; % Suppression vs. Vehicle (18 h, 200 mg/kg): 90%; % Suppression vs. Vehicle (18 h, 600 mg/kg): 96%
7 | CC[C@H]1CN(C[C@H]2CN(c3ccc(C#N)c4ncccc34)C[C@@H](C)O2)CCN1 [ER-890963] | 90 |  |  | 98 | 99 | 100 | 45 |  |  | 80 | % Suppression vs. Vehicle (13 h, 33 mg/kg): 31%; % Suppression vs. Vehicle (13 h, 300 mg/kg): 100%; % Suppression vs. Vehicle (24 h, 100 mg/kg): 50%; % Suppression vs. Vehicle (24 h, 300 mg/kg): 100%
8 | CCCN1CCN(C[C@H]2CN(c3ccc(C#N)c4ncccc34)C[C@@H](C)O2)CC1 [ER-887724] | 99 | 99 | 99 | 99 | 99 | 99 | 83 | 91 | 99 |  | 
9 | C[C@@H]1CN(c2ccc(C#N)c3ncccc23)C[C@H](C(=O)N[C@H]2CNC[C@H]2F)O1.Cl [ER-899742, (2R,6R)-4-(8-cyanoquinolin-5-yl)-N-[(3S,4R)-4-fluoropyrrolidin-3-yl]-6-methylmorpholine-2-carboxamide hydrochloride] |  |  |  |  | 100 |  |  |  |  | 61 | short-term in vivo suppression of the TLR7 pathway (plasma IL-6): suppression of the TLR7 pathway; duration of full suppression of the R848/TLR7/IL-6 pathway in vivo (single oral dose 300 mg/kg): at least 24 hours
